{
  "source": "patent EP1106702A1",
  "about": "“High-throughput screening of compounds using electrospray ionization mass spectrometry (ESI-MS)” (AGOURON PHARMACEUTICALS, INC., priority 1999, dated 2001)",
  "key": {"6:7 duplex [1]": {"system": "6:7 duplex", "assay": "ESI-MS monitoring of non-covalent small molecule:oligonucleotide complexes with DNA duplex", "format": "binding", "conditions": "for ammonium acetate concentration tolerated with binding/complex stable: ammonium acetate varied from 10 mM to 250 mM; for relative binding affinity to 6:7 duplex: 10 mM ammonium acetate", "experimental": "Regarding buffer concentration, the concentrations of ammonium acetate were varied to determine the effects of ionic strength on ligand binding. […] Of the intercalators, proflavin tolerated over 100 mM ammonium acetate with minimal shifting in binding. However, ethidium bromide and methyl green had almost 70% reduction in binding to DNA at only 33 mM ammonium acetate. The reduction in binding of ethidium bromide and methyl green at high salt concentrations is evidence of the electrostatic nature of the first step in binding in the intercalation of these compounds. Proflavin, which is […] at the test pH, should be less affected by an increase in competing counterions.\nThe general protocol for preparing the samples utilized in the present invention is as follows. Complementary single-stranded oligonucleotides are desalted, preferably via ammonium acetate precipitation. This DNA desalting procedure involves the following steps. First, the oligonucleotide is dissolved in approximately 100 µL of water. Next, about 500 µL of 10 M ammonium acetate is added. The solution is mixed and allowed to rest for about 5 minutes. From about 600 to about […] of cold ethanol (EtOH) is added and the solution is set in dry ice for about 25 minutes. The solution is then centrifuged for about 20 minutes. The supernatant is removed and saved and the preceding steps are repeated once. Subsequently, 1 ml of a 90:10 solution of EtOH and water are added and the solution is centrifuged for 5 minutes. This step is then repeated twice. The solution is then dried and rehydrated. Finally, OD readings are taken at 260 nanometers to ensure a 1:500 dilution.\n(§1) The complementary oligonucleotide strands and corresponding oligonucleotide duplex are not critical to the invention. The duplex may comprise a DNA:DNA duplex, an RNA:RNA duplex or a DNA:RNA duplex. The DNA strands utilized herein are described in detail below. Once desalted, the complementary oligonucleotide strands are added in equimolar mixture in 50 mM ammonium acetate to make a […] duplex stock solution. The duplex stock solution is placed in a 60° C water bath for 10 minutes and then slowly cooled to room temperature. Test solutions are made by adding test compound (dissolved in methanol (MeOH)) to stock solution in a 2:1 water:isopropyl alcohol. Final concentrations of test compound and duplex are preferably 10 µM each. For example, 20 µL of the stock duplex solution is added to 80 µL of a 2:1 solution of water and IPA for a final volume of 100 µL and a final concentration of 10 µM duplex. The test compound is then added to the solution for a final concentration of 10 µM as well. One may subsequently dilute the test solution to test a range of test compound concentrations, from as low as 0.3 µM up to 10 µM.\nOnce the appropriate samples and solutions are prepared, one may proceed with the ESI-MS procedure. The general protocol for manual analysis is as follows. First, a 50 µL sample of test solution (comprised of about 30 picomoles of test compound) is drawn into a 100 µL syringe and infused into an LCQ Decca ion trap mass spectrometer using ESI-MS source. The sample is directly infused at a rate of about 1.5 µL/min over a period of approximately 2 minutes. The spectra is then analyzed for the presence of bound test ligand. If the test ligand does bind, the sample is re-run at lower concentrations, from about 0.3 µM up to 1.0 µM. In order to ensure statistical accuracy, data are preferably summed, saved, and analyzed over a large numbers of scans, preferably 30 to 50 scans, more preferably 40 scans.\nThe oligonucleotides utilized in the examples herein were known to interact with a particular target(s) of interest. They were provided according to our specifications from TriLink (La Jolla, CA). […] When the duplex solution was analyzed by ESI-MS, it was possible to see at least three charge stages of the duplex as well as some charge states of the two single strands. […]"}, "ss DNA": {"system": "ss DNA", "assay": "ESI-MS monitoring of ligand binding to the single strands in the duplex mixture", "conditions": "10 µM duplex 6:7 mixture, increasing ligand concentration", "experimental": "as §1, with “For example, 20 µL of the stock duplex solution is added to 80 µL of a 2:1 solution of water and IPA for a final volume of 100 µL and a final concentration of 10 µM duplex. The test compound is then added to the solution for a final concentration of 10 µM as well. One may subsequently dilute the test solution to test a range of test compound concentrations, from as low as 0.3 µM up to 10 µM.” left out\nOnce the appropriate samples and solutions are prepared, one may proceed with the ESI-MS procedure. […] The spectra is then analyzed for the presence of bound test ligand. […] In order to ensure statistical accuracy, data are preferably summed, saved, and analyzed over a large numbers of scans, preferably 30 to 50 scans, more preferably 40 scans.\nThe oligonucleotides utilized in the examples herein were known to interact with a particular target(s) of interest. […] When the duplex solution was analyzed by ESI-MS, it was possible to see at least three charge stages of the duplex as well as some charge states of the two single strands. […]"}, "E.coli DNA helicase II": {"target": "E.coli DNA helicase II (Escherichia coli, UniProt P03018)", "sequence (P03018 whole entry)": "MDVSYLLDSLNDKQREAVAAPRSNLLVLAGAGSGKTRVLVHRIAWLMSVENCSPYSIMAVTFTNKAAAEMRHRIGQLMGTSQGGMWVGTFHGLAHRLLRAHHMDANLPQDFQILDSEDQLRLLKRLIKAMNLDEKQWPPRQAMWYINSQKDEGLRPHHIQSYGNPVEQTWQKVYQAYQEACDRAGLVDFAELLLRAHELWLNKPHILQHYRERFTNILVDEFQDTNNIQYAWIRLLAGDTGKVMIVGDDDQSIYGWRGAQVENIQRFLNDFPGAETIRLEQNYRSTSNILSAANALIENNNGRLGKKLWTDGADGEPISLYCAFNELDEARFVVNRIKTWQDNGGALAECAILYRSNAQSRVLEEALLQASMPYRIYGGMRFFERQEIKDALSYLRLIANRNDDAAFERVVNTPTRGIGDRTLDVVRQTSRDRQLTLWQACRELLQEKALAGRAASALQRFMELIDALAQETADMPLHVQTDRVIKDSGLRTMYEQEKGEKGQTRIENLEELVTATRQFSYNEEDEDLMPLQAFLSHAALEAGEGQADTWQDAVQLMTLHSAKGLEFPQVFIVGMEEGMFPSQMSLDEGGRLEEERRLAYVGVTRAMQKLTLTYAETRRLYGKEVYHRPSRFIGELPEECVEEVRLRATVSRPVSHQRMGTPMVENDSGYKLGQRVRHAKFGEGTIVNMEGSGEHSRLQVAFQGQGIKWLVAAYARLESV", "conditions": "intercalation into double-stranded DNA substrate; cited from earlier work"}, "6:7 duplex [2]": {"system": "6:7 duplex", "assay": "ESI-MS monitoring of non-covalent small molecule:oligonucleotide complexes with DNA duplex", "format": "binding", "conditions": "10 µM duplex and 10 µM proflavin; FT-ICR mass spectrometer"}, "[3]": {"conditions": "33 mM ammonium acetate, 10 µM 6:7 duplex and 10 µM sample"}, "[4]": {"conditions": "10 µM 6:7 duplex and 10 µM sample"}},
  "data": [
    {"smiles": "CN1CCN(c2ccc3[nH]c(-c4ccc5[nH]c(-c6ccc(O)cc6)nc5c4)nc3c2)CC1", "note": "[H33258, bis-benzamide]", "values": [
      {"measurement": "relative amounts of the 1:1 H33258:DNA complex compared with the 2:1 H33258:DNA complex", "setting": "6:7 duplex [1]; 33 mM ammonium acetate", "result": "shifted"},
      {"measurement": "change in binding (in words)", "setting": "6:7 duplex [1]; [3]", "result": "appreciable reduction in binding"},
      {"measurement": "binding to single strand", "setting": "ss DNA", "result": "ligand bound to ss DNA was observed in increasing quantities"}
    ]},
    {"smiles": "Cn1cc(NC(=O)c2cc(NC(=O)c3cc(NC=O)cn3C)cn2C)cc1C(=O)NCCC(=N)N", "note": "[distamycin A]", "values": [
      {"measurement": "ammonium acetate concentration tolerated with binding/complex stable", "setting": "6:7 duplex [1]; [4]", "result": "up to 100 mM"},
      {"measurement": "observation of ligand:DNA complex", "setting": "6:7 duplex [1]; 500 mM ammonium acetate in solution", "result": "still observed (though at much reduced levels)"}
    ]},
    {"smiles": "CN(C)c1ccc(C(=C2C=CC(=[N+](C)C)C=C2)c2ccc([N+](C)(C)C)cc2)cc1.[Cl-].[Cl-]", "note": "[methyl green]", "values": [
      {"measurement": "relative binding affinity to 6:7 duplex", "setting": "6:7 duplex [1]", "result": "methyl green > ethidium bromide > proflavin"},
      {"measurement": "reduction in binding to DNA", "setting": "6:7 duplex [1]; [3]", "result": "~70", "unit": "%"}
    ]},
    {"smiles": "O=C1c2c(O)ccc(O)c2C(=O)c2c(NCCNCCO)ccc(NCCNCCO)c21", "note": "[mitoxantrone]", "values": [
      {"measurement": "effect on helicase II ATP hydrolysis and unwinding activity", "setting": "E.coli DNA helicase II", "result": "inhibition of ATP hydrolysis and unwinding activity"}
    ]},
    {"smiles": "Nc1ccc2cc3ccc(N)cc3nc2c1", "note": "[proflavin]", "values": [
      {"measurement": "ammonium acetate concentration tolerated with binding/complex stable", "setting": "6:7 duplex [1]; [4]", "result": "over 100 mM"},
      {"measurement": "relative binding affinity to 6:7 duplex", "setting": "6:7 duplex [1]", "result": "methyl green > ethidium bromide > proflavin"},
      {"measurement": "binding between intercalator and duplex", "setting": "6:7 duplex [2]", "result": "binding between intercalator and duplex was observed"}
    ]}
  ]
}
